In US12441703B2, “Carboxamides as modulators of sodium channels” (VERTEX PHARMACEUTICALS INCORPORATED, priority 2019, dated 2025) one finds IC50 data, which are given here for 24 molecules.

For this assay, the target named is human NaV 1.8 (Homo sapiens, UniProt Q9Y5Y9). The experiment in a line: E-VIPR assay for detecting and measuring NaV inhibition properties. The class given is cell-based. The settings on record: E-VIPR assay conducted in the presence of human serum; HEK cells expressing truncated human NaV 1.8; read-out: IC50. From the text: Sodium ion channels are voltage-dependent proteins that can be activated by inducing membrane voltage changes by applying electric fields. The electrical stimulation instrument and methods of use, referred to as E-VIPR, are described in International Publication No. WO 2002/008748 A3 and C.-J. Huang et al. Characterization of voltage-gated sodium channel blockers by electrical stimulation and fluorescence detection of membrane potential, 24 Nature Biotech. 439-46 (2006), both of which are incorporated by reference in their entirety. The instrument comprises a microtiter plate handler, an optical system for exciting the coumarin dye while simultaneously recording the coumarin and oxonol emissions, a waveform generator, a current- or voltage-controlled amplifier, and parallel electrode pairs that are inserted into assay plate wells. Under integrated computer control, this instrument passes user-programmed electrical stimulus protocols to cells within the wells of the microtiter plate.
16-20 hours prior to running the assay on E-VIPR, HEK cells expressing a truncated form of human NaV 1.8 with full channel activity were seeded into microtiter 384-well plates, pre-coated with matrigel, at a density of 25,000 cells per well. 2.5-5% KIR2.1 Bacmam virus was added to the final cell suspension before seeding into cell plates. HEK cells were grown in Dulbecco's Modified Eagle's Medium (DMEM) supplemented with 10% FBS (Fetal Bovine Serum, qualified; Sigma #F4135), 1% NEAA (Non-Essential Amino Acids, Gibco #11140), 1% HEPES (Gibco #15630), 1% Pen-Strep (Penicillin-Streptomycin; Gibco #15140) and 5 μg/ml Blasticidin (Gibco #R210-01). Cells were expanded in vented cap cell culture flasks, with 90-95% humidity and 5% CO2.
Compound Loading Buffer (2× concentration): Na/TMA Cl Bath1 Buffer containing HS (omitted in experiments run in the absence of human serum (HS)) 50%, VABSC-1 1 mM, BSA 0.2 mg/ml (in Bath-1), KCl 9 mM, DMSO 0.75%.
• 1) To reach the final concentration in each well, 400 nL of each compound was pre-spotted (in neat DMSO) into polypropylene compound plates at 250× desired final concentration from an intermediate stock concentration of 0.075 mM, in an 11 point dose response, 3-fold dilution, resulting in a top dose of 300 nM final concentration in the cell plate. Vehicle control (neat DMSO), and positive control (an established NaV1.8 inhibitor, 25 μM final in assay in DMSO) were added manually to the outermost columns of each plate respectively. The compound plate was backfilled with 45 μL per well of Compound Loading Buffer resulting in a 250 fold dilution of compound following a 1:1 transfer of compound into the cell plate (see Step 6). Final DMSO concentration for all wells in the assay was 0.625% (0.75% DMSO was supplemented to the Compound Loading Buffer for a final DMSO concentration of 0.625%). This assay dilution protocol was adjusted to enable a higher dose range to be tested in the presence of HS or if the final assay volume was altered. • 2) Hexyl Dye Solution was prepared. • 3) Cell plates were prepared. On the day of the assay, the media was aspirated, and the cells were washed three times with 80 μL of Bath-1 buffer, maintaining 25 μL residual volume in each well. • 4) 25 μL per well of Hexyl Dye Solution was dispensed into the cell plates. The cells were incubated for 20 minutes at room temperature or ambient conditions in darkness. • 5) 45 μL per well of Compound Loading Buffer was dispensed into compound plates. • 6) The cell plates were washed three times with 80 μL per well of Bath-1 Buffer, leaving 25 µL of residual volume. Then 25 μL per well from compound plate was transferred to each cell plate. The mixture was incubated for 30 minutes at room temperature/ambient conditions. • 7) The cell plate containing compound was read on E-VIPR using the current-controlled amplifier to deliver stimulation wave pulses using a symmetrical biphasic waveform. […]

Chain of human NaV 1.8 (Q9Y5Y9 whole entry, looked up, the tested form may be a part): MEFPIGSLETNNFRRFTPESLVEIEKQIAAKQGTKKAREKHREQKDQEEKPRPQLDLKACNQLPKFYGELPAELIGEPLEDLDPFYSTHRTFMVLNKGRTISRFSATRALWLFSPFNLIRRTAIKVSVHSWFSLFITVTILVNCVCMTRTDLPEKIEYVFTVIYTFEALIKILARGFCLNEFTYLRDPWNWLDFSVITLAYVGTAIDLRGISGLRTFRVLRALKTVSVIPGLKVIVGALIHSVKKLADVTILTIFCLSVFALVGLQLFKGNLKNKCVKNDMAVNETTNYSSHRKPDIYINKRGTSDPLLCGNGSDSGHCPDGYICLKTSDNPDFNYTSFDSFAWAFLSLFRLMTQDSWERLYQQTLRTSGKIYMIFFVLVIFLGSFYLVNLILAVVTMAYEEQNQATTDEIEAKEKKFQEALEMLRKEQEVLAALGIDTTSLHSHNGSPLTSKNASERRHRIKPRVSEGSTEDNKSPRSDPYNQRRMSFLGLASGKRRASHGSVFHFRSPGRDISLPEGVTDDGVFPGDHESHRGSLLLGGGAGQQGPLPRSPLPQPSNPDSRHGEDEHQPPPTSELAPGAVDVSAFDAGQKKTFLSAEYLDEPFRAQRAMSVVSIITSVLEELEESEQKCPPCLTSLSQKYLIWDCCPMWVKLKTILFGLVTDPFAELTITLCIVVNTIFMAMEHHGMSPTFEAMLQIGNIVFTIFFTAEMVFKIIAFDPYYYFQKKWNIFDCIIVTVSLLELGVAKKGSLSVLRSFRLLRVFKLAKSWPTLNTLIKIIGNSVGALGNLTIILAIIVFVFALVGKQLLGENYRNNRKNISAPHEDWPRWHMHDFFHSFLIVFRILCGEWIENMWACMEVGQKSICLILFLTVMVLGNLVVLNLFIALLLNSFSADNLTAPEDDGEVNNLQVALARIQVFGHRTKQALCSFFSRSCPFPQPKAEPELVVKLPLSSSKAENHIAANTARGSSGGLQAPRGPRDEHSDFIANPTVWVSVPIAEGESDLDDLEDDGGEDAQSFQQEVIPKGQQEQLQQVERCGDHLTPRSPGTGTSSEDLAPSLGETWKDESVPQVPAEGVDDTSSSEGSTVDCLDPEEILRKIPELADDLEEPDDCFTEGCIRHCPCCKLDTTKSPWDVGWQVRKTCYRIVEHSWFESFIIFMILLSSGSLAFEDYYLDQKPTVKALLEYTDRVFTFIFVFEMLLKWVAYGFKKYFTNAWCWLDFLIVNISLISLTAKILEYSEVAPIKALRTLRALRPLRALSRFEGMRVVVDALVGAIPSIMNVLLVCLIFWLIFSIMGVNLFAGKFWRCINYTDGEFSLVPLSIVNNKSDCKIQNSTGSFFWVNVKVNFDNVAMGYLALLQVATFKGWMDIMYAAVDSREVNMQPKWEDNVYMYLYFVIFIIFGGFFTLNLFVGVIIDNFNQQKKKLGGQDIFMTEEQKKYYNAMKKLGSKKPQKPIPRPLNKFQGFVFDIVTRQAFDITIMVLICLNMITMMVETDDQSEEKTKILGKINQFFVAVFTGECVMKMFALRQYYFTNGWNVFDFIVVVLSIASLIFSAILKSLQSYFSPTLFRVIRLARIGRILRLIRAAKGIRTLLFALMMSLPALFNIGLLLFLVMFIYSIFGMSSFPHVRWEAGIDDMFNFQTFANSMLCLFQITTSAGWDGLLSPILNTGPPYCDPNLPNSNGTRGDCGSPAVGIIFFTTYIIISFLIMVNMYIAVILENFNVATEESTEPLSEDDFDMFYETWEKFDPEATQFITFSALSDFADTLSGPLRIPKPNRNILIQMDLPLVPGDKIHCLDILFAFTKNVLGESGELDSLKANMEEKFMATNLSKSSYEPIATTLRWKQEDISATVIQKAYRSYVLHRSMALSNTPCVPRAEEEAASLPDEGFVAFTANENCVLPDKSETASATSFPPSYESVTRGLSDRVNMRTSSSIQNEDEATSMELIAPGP

As usually defined, the IC50 is the point on the concentration scale where inhibition reaches its midpoint. As for `NC(=O)c1cc(NC(=O)c2ccc(C(F)(F)F)cc2Oc2ccc(OC3CCCCC3)cc2)ccn1` [Compound 109, 4-[[2-[4-(cyclohexoxy)phenoxy]-4-(trifluoromethyl)benzoyl]amino]pyridine-2-carboxamide], the IC50 is more than 3000 nM.
Consider `NC(=O)c1ccc(NC(=O)c2c(Oc3ccc(F)c(F)c3F)ccc(C(F)(F)F)c2F)cn1` [Compound 215, 5-[[2-fluoro-3-(trifluoromethyl)-6-(2,3,4-trifluorophenoxy)benzoyl]amino]pyridine-2-carboxamide], for which the IC50 worked out at 570 nM.
As to `Cc1c(C(F)(F)F)ccc(Oc2ccc(Cl)cc2F)c1C(=O)Nc1ccnc(C(N)=O)c1` [Compound 135, 4-[[6-(4-chloro-2-fluoro-phenoxy)-2-methyl-3-(trifluoromethyl)benzoyl]amino]pyridine-2-carboxamide], the IC50 worked out at 470 nM.
In the case of `COc1c(Oc2ccc(C(F)(F)F)c(F)c2C(=O)Nc2ccnc(C(N)=O)c2)ccc(F)c1F` [Compound 31, 4-[[6-(3,4-difluoro-2-methoxy-phenoxy)-2-fluoro-3-(trifluoromethyl)benzoyl]amino]pyridine-2-carboxamide] it was 9 nM; in that of `COc1c(Oc2cnc(C(F)(F)F)c(C)c2C(=O)Nc2ccnc(C(N)=O)c2)ccc(F)c1F` [Compound 375, N-(2-carbamoyl-4-pyridyl)-5-(3,4-difluoro-2-methoxy-phenoxy)-3-methyl-2-(trifluoromethyl)pyridine-4-carboxamide], 29 nM; in that of `NC(=O)c1cc(NC(=O)c2c(Oc3ccc(F)c(F)c3)ccc(C(F)(F)F)c2F)ccn1` [Compound 24, 4-[[6-(3,4-difluorophenoxy)-2-fluoro-3-(trifluoromethyl)benzoyl]amino]pyridine-2-carboxamide], 200 nM.
For `Cc1cc(F)ccc1Oc1ccc(C(F)(F)F)c(C)c1C(=O)Nc1ccnc(C(N)=O)c1` [Compound 129, 4-[[6-(4-fluoro-2-methyl-phenoxy)-2-methyl-3-(trifluoromethyl)benzoyl]amino]pyridine-2-carboxamide], the IC50 was 20 nM.
For the molecule `COc1cc(OC(F)(F)F)ccc1Oc1cc(OC)c(C(F)(F)F)c(C)c1C(=O)Nc1ccnc(C(N)=O)c1` [Compound 283, 4-[[4-Methoxy-6-[2-Methoxy-4-(Trifluoromethoxy)Phenoxy]-2-Methyl-3-(Trifluoromethyl)Benzoyl]Amino]Pyridine-2-Carboxamide], the IC50 turned out to be 4.2 nM.
As for `Cc1c2c(cc(Oc3ccc(OC(F)(F)F)cc3Cl)c1C(=O)Nc1ccnc(C(N)=O)c1)OC(F)(F)O2` [Compound 239, 4-[[6-[2-chloro-4-(trifluoromethoxy)phenoxy]-2,2-difluoro-4-methyl-1,3-benzodioxole-5-carbonyl]amino]pyridine-2-carboxamide], the IC50 was determined as 72 nM.
As to `COc1cc(OC(F)(F)F)ccc1Oc1ccc(C(F)(F)F)c(OCC2CC2)c1C(=O)Nc1ccnc(C(N)=O)c1` [Compound 84, 4-[[2-(cyclopropylmethoxy)-6-[2-methoxy-4-(trifluoromethoxy)phenoxy]-3-(trifluoromethyl)benzoyl]amino]pyridine-2-carboxamide], the IC50 was 625 nM.
In the case of `Cc1cc(Cl)ccc1Oc1ccc(C(F)(F)F)c(F)c1C(=O)Nc1ccc(C(N)=O)nc1` [Compound 218, 5-[[6-(4-chloro-2-methyl-phenoxy)-2-fluoro-3-(trifluoromethyl)benzoyl]amino]pyridine-2-carboxamide] it was 735 nM; in that of `COc1cc(Cl)ccc1Oc1ccc(C(F)(F)F)c(C)c1C(=O)Nc1ccnc(C(N)=O)c1` [Compound 134, 4-[[6-(4-chloro-2-methoxy-phenoxy)-2-methyl-3-(trifluoromethyl)benzoyl]amino]pyridine-2-carboxamide], 120 nM.
As for `Cc1c(C(F)(F)F)ccc(Oc2ccc(OC(F)(F)F)cc2)c1C(=O)Nc1ccnc(C(N)=O)c1` [Compound 123, 4-[[2-methyl-6-[4-(trifluoromethoxy)phenoxy]-3-(trifluoromethyl)benzoyl]amino]pyridine-2-carboxamide], the IC50 was determined as 53 nM.
For the molecule “4-[[2-(4-fluoro-2-methoxy-phenyl)-4-(trifluoromethyl)benzoyl]amino]pyridine-2-carboxamide [Compound 175]”, the IC50 is more than 3000 nM.
In the case of `COc1cc(C)cc(OC)c1Oc1ccc(C(F)(F)F)c(C)c1C(=O)Nc1ccnc(C(N)=O)c1` [Compound 145, 4-[[6-(2,6-dimethoxy-4-methyl-phenoxy)-2-methyl-3-(trifluoromethyl)benzoyl]amino]pyridine-2-carboxamide] it was more than 3000 nM.
In the case of `COc1c(Oc2ccc(C(F)(F)F)c(C)c2C(=O)Nc2ccnc(C(N)=O)c2)ccc(OC(F)(F)F)c1F` [Compound 147, 4-[[6-[3-fluoro-2-methoxy-4-(trifluoromethoxy)phenoxy]-2-methyl-3-(trifluoromethyl)benzoyl]amino]pyridine-2-carboxamide] it was 3 nM.
In the case of `COc1cc(F)ccc1Oc1ccc(C(F)(F)F)c(C)c1C(=O)Nc1ccc(C(N)=O)nc1` [Compound 232, 5-[[6-(4-fluoro-2-methoxy-phenoxy)-2-methyl-3-(trifluoromethyl)benzoyl]amino]pyridine-2-carboxamide] it was 1500 nM; in that of `COc1c(F)cccc1Oc1ccc(C(F)(F)F)c(F)c1C(=O)Nc1ccnc(C(N)=O)c1` [Compound 34, 4-[[2-fluoro-6-(3-fluoro-2-methoxy-phenoxy)-3-(trifluoromethyl)benzoyl]amino]pyridine-2-carboxamide], 120 nM; in that of `Cc1cnc(C(N)=O)cc1NC(=O)c1c(Oc2ccc(OC(F)(F)F)cc2C)ccc(C(F)(F)F)c1F` [Compound 285, 4-[[2-Fluoro-6-[2-Methyl-4-(Trifluoromethoxy)Phenoxy]-3-(Trifluoromethyl)Benzoyl]Amino]-5-Methyl-Pyridine-2-Carboxamide], 26 nM.
In the case of `COc1cc(Oc2ccc(OC(F)(F)F)cc2Cl)c(C(=O)Nc2cnc(C(N)=O)nc2)c(F)c1C(F)(F)F` [Compound 369, 5-[[6-[2-chloro-4-(trifluoromethoxy)phenoxy]-2-fluoro-4-methoxy-3-(trifluoromethyl)benzoyl]amino]pyrimidine-2-carboxamide], the IC50 was determined as 9 nM.
In the case of `COc1c(Oc2ccc(C(F)(F)F)c(C)c2C(=O)Nc2ccc(C(N)=O)nc2)ccc(OC(F)(F)F)c1F` [Compound 224, 5-[[6-[3-fluoro-2-methoxy-4-(trifluoromethoxy)phenoxy]-2-methyl-3-(trifluoromethyl)benzoyl]amino]pyridine-2-carboxamide] it was 6 nM; in that of `COc1c(C(F)(F)F)ccc(Oc2cccc(C3CCCCC3)c2)c1C(=O)Nc1ccnc(C(N)=O)c1` [Compound 258, 4-[[6-(3-cyclohexylphenoxy)-2-methoxy-3-(trifluoromethyl)benzoyl]amino]pyridine-2-carboxamide], more than 3000 nM.
Take `[2H]C([2H])([2H])Oc1cc(OC(F)(F)F)ccc1Oc1cc(C2CCOCC2)cc(F)c1C(=O)Nc1ccnc(C(N)=O)c1` [Compound 1019, 4-[[2-fluoro-4-tetrahydropyran-4-yl-6-[2-(trideuteriomethoxy)-4-(trifluoromethoxy)phenoxy]benzoyl]amino]pyridine-2-carboxamide]: the IC50 stood at 79 nM.
Turning to `Cc1c(C(F)(F)F)ccc(Oc2ccc(F)cc2Cl)c1C(=O)Nc1ccc(C(N)=O)nc1` [Compound 190, 5-[[6-(2-chloro-4-fluoro-phenoxy)-2-methyl-3-(trifluoromethyl)benzoyl]amino]pyridine-2-carboxamide], the IC50 is 1500 nM.
